Assay results from patent publication US20070244155A1 (AMGEN INC., priority 2006, published 2007).

molecular target: T1, human GPR40 (Homo sapiens, UniProt O14842); assay: Cell-based aequorin assay using human GPR40; details: CHO cells transfected with GPR40 and aequorin expression vectors; aequorin luminescence; activation of human GPR40; read-out: Relative EC50
T1 construct: expressed in transfected cells; host or cells: CHO cells
Description: A cell-based aequorin assay may be employed to characterize the modulatory activity of compounds on the GPR40 signaling pathway. In an exemplary assay, CHO cells are transfected in a 15 cm plated containing 14 million cells with 5 μg of GPR40 expression vector and 5 μg of Aequorin expression vector (Euroscreen) using Lipofectamine 2000 (Invitrogen). After 17-24 hours post-transfection, cells are washed with phosphate buffered saline (PBS) and detached from the tissue culture dish with 2 mL of trypsin (0.25%(w/v)). Trypsinization is halted with 28 mL of Hanks Buffered Salt Solution containing 20 mM Hepes (H/HBSS) and 0.01% fatty acid-free bovine serum albumin (BSA) or 0.625% fatty acid-free human serum albumin (HSA). Coelantrazine is added to 1 ug/mL and the cells are incubated for 2 hours at room temperature. Cells are gently mixed every 15 minutes. Compounds are dissolved in dimethyl sulfoxide for preparation of 10 mM stock solutions. Compounds are diluted in H/HBSS containing either 0.01% BSA or 0.625% HSA. Serial dilutions of the test compounds are prepared to determine dose response. Aequorin luminescence measurements are made using an EG&G Berthold 96-well luminometer and the response is measured over a 20 second interval after cells and compounds are mixed. The area-under-curve from 2-20 seconds is plotted to determine dose response. The EC50 (effective concentration to reach 50% maximal response) is determined from the dose response plot. Table 1 includes representative data (EC50 values) obtained for exemplary compounds of the invention for the relative activation of human GPR40. […] Therefore, in some embodiments, the invention provides any of the compounds listed in Table 1 individually or as members of a group and pharmaceutically acceptable salts, esters, solvates, tautomers, stereoisomers, and/or prodrugs thereof.

T1 sequence (O14842 whole entry): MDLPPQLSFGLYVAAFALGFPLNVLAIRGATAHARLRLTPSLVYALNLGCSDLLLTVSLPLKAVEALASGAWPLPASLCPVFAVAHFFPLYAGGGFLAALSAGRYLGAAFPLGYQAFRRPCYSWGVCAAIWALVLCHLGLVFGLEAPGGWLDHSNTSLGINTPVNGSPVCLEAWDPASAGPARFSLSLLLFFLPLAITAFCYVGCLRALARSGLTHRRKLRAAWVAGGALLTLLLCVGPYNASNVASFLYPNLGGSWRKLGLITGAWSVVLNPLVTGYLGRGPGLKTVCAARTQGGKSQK

Structure (SMILES)	EC50 [µM]
O=C(O)CCn1ccc2cc(OCc3ccccc3)ccc21 [Example 53]	1 to 10
C=C1COc2cc(OCc3sc(-c4ccc(C)cc4)nc3C)ccc2C1CC(=O)O (stereo not shown) [Example 34, 2-(7-((4-methyl-2-p-tolylthiazol-5-yl)methoxy)-3-methylene-3,4-dihydro-2H-chromen-4-yl)acetic acid]	< 0.1
O=C(O)CCn1ccc2cc(OCc3cccc(-c4ccc(C(F)(F)F)cc4)c3)ccc21 [Example 51]	1 to 10
Cc1c(Cl)cccc1-c1cccc(COc2ccc3c(c2)C(=O)N(C)C3CC(=O)O)c1 (racemic) [Example 69, (R/S)-(5-(((3′-chloro-2′-methyl-1,1′-biphenyl-3-yl)methyl)oxy)-2-methyl-3-oxo-2,3-dihydro-1H-isoindol-1-yl)acetic acid]	0.1 to 1
CCCCOc1ccc(C)cc1-c1ccc(COc2ccc3c(c2)OCC(=C(C)C)C3CC(=O)O)cc1 (racemic) [Example 39]	0.1 to 1
O=C(O)CC1CCCc2cc(CCc3ccc(C(F)(F)F)cc3)ccc21 (stereo not shown) [Example 48, {6-[2-(4-Trifluoromethyl-phenyl)-ethyl]-1,2,3,4-terahydro-naphthalen-1-yl}-acetic acid]	1 to 10
COc1ccc(COc2ccc3c(c2)CCC(=O)N3CCC(=O)O)cc1 [Example 50, 3-[6-(4-Methoxy-benzyloxy)-2-oxo-3,4-dihydro-2H-quinolin-1-yl]-propionic acid]	1 to 10
Cc1cc(Cl)ccc1-c1cccc(COc2ccc3c(c2)C(=O)N(C)C3CC(=O)O)c1 (racemic) [Example 67, (R/S)-(5-(((4′-chloro-2′-methyl-1,1′-biphenyl-3-yl)methyl)oxy)-2-methyl-3-oxo-2,3-dihydro-1H-isoindol-1-yl)acetic acid]	0.1 to 1
COc1ccc(/C=C/c2ccc3c(c2)CCCC3CC(=O)O)cc1 (stereo not shown) [Example 47, {6-[(E)-2-(4-Methoxy-phenyl)-vinyl]-1,2,3,4-tetrahydro-naphthalen-1-yl}-acetic acid]	1 to 10
O=C(O)CC1c2ccc(OCc3cccc(-c4ccc(C(F)(F)F)cc4)c3)cc2OCc2conc21 (racemic) [Example 71, (R/S)-(7-(((4′-(trifluoromethyl)-1,1′-biphenyl-3-yl)methyl)oxy)-4H,10H-[l]benzoxepino[4,3-c]isoxazol-10-yl)acetic acid]	1 to 10
Cc1cc(Cl)ccc1-c1cccc(COc2ccc3c(c2)C(=O)NC3CC(=O)O)c1 (racemic) [Example 66, (R/S)-(5-(((4′-chloro-2′-methyl-1,1′-biphenyl-3-yl)methyl)oxy)-3-oxo-2,3-dihydro-1H-isoindol-1-yl)acetic acid]	1 to 10
Cc1ccc(-c2nc(C)c(COc3ccc4c(c3)CC(C)C4CC(=O)O)s2)cc1 (mixture of isomers) [Example 28]	1 to 10
C=C1COc2cc(OCc3ccc(-c4cc(C)ccc4OCCCC)cc3)ccc2[C@H]1CC(=O)O [Example 36, [(S)-7-(2′-Butoxy-5′-methyl-biphenyl-4-ylmethoxy)-3-methylene-chroman-4-yl]-acetic acid]	< 0.1
O=C(O)[C@@H]1CCOc2cc(OCc3cccc(-c4ccc(C(F)(F)F)cc4)c3)ccc2C1 [Example 63]	1 to 10
Cc1ccc(-c2nc(C)c(COc3ccc4c(c3)CCC(C)C4CC(=O)O)s2)cc1 (mixture of isomers) [Example 24]	1 to 10
C=C(c1ccc(Oc2ccccc2)cc1)c1ccc2c(c1)CCCC2CC(=O)O (racemic) [Example 45, (R/S)-{6-[1-(4-Phenoxy-phenyl)-vinyl]-1,2,3,4-tetrahydro-naphthalen-1-yl}-acetic acid]	1 to 10
Cc1c(Cl)cccc1-c1cccc(COc2ccc3c(c2)C(=O)NC3CC(=O)O)c1 (racemic) [Example 68]	1 to 10
C=C1COc2cc(OCc3ccc(-c4cc(C)ccc4OCCCC)cc3)ccc2C1CC(=O)O (racemic) [Example 35]	0.1 to 1
Cc1c(Cl)cccc1-c1cccc(COc2ccc3c(c2)OCC[C@@H](C(=O)O)C3)c1 [Example 64]	0.1 to 1
CCCCOc1ccc(C)cc1-c1ccc(COc2ccc3c(c2)OCC(C)C3CC(=O)O)cc1 (racemic) [Example 40]	0.1 to 1
O=C(O)c1cc2ccc(OCc3cccc(Oc4ccccc4)c3)cc2oc1=O [Example 54, 7-(3-Phenoxybenzyloxy)-2-oxo-2H-chromene-3-carboxylic acid]	1 to 10

Other lines, results leading:

EC50 [µM]	Structure (SMILES)
1 to 10	CCOc1ccccc1-c1ccc(COc2ccc3c(c2)C(CC(=O)O)CCC3)cc1 (stereo not shown) [Example 19]
0.1 to 1	C=C1CCc2cc(OCc3cccc(-c4ccc(C(F)(F)F)cc4)c3)ccc2C1CC(=O)O (stereo not shown) [Example 38, 2-(6-(3-(4-Trifluoromethylphenyl)benzyloxy)-2-methylene-1,2,3,4-tetrahydronaphthalen-1-yl)acetic acid]
1 to 10	O=C(O)CC1CCc2cc(OCc3cccc(-c4ccc(C(F)(F)F)cc4)c3)ccc21 (stereo not shown) [Example 15]
1 to 10	CCOc1ccc(F)c(-c2ccc(COc3ccc4c(c3)CCCC4CC(=O)O)cc2)c1 (stereo in doubt) [Example 60, (S)-[6-(5′-Ethoxy-2′-fluoro-biphenyl-4-ylmethoxy)-1,2,3,4-tetrahydro-naphthalen-1-yl]-acetic acid]
< 0.1	CCCCOc1ccc(C)cc1-c1ccc(COc2ccc3c(c2)CCC[C@H]3CC(=O)O)cc1 [Example 4]
1 to 10	O=C(O)CC1CCc2ccc(OCc3cccc(-c4ccc(C(F)(F)F)cc4)c3)cc2C1 (stereo not shown) [Example 20]
< 0.1	Cc1ccc(-c2nc(C)c(COc3ccc4c(c3)CCC[C@H]4CC(=O)O)s2)cc1 [Example 5]
< 0.1	COc1cccc(-c2ccc(COc3ccc4c(c3)CCCC4CC(=O)O)cc2)c1 (stereo not shown) [Example 7]
0.1 to 1	COc1cccc(-c2ccc(COc3ccc4c(c3)CCC4CC(=O)O)cc2)c1 (stereo not shown) [Example 13]
1 to 10	COc1cccc(-c2ccc(COc3ccc4c(c3)CCC[C@@H]4CC(=O)O)cc2)c1 [Example 58, (R)-[6-(3′-Methoxy-biphenyl-4-ylmethoxy)-1,2,3,4-tetrahydro-naphthalen-1-yl]-acetic acid]
1 to 10	C=C(c1ccc(-c2ccccc2)cc1)c1ccc2c(c1)CCCC2CC(=O)O (racemic) [Example 44, (R/S)-[6-(1-Biphenyl-4-yl-vinyl)-1,2,3,4-tetrahydro-naphthalen-1-yl]-acetic acid]
0.1 to 1	O=C(O)CC1CCCc2cc(OCc3cccc(-c4ccc(C(F)(F)F)cc4)c3)ccc21 (stereo not shown) [Example 8]
1 to 10	O=C(O)CC1CCCc2cc(CCc3ccc(-c4ccccc4)cc3)ccc21 (stereo not shown) [Example 49, [6-(2-Biphenyl-4-yl-ethyl)-1,2,3,4-tetrahydro-naphthalen-1-yl]-acetic acid]
1 to 10	CC1CCc2cc(OCc3cccc(-c4ccc(C(F)(F)F)cc4)c3)ccc2C1CC(=O)O (mixture of isomers) [Example 22]
0.1 to 1	Cc1cc(Cl)ccc1-c1cccc(COc2ccc3c(c2)CCC[C@@H]3CC(=O)O)c1 [Example 55]
1 to 10	O=C(O)C(F)(F)C1CCCc2cc(OCc3cccc(-c4ccc(C(F)(F)F)cc4)c3)ccc21 (stereo not shown) [Example 32, Difluoro-[6-(4′-trifluoromethyl-biphenyl-3-ylmethoxy)-1,2,3,4-tetrahydro-naphthalen-1-yl]-acetic acid]
